Drawing on patent publication US6407097B1, “Methoximinomethyloxathiazines” (Bayer Aktiengesellschaft, priority 1998, dated 2002), this text covers chromatographic logP and efficacy for seven compounds.

Test system in one data set: not listed separately
Description: logP by HPLC (EEC directive 79/831 Annex V. A8, gradient method). The class given is physicochemical. The settings on record: starting materials/intermediates, read-out: HPLC: log P.
For `CON=C1C(=NOCCSC(C)=O)Oc2ccccc21` (single isomer, unassigned) [VI-1 Isomer B, S-[2-(3-methoxyimino-3H-benzofuran-2-ylideneaminooxy)-ethyl]thioacetate], the chromatographic logP turned out to be 3.18.
Same read-out and setting: next, `CON=C(C1=NOCCS1)c1ccccc1O` [II-1, (5,6-dihydro-[1,4,2]oxathiazin-3-yl)-(2-hydroxyphenyl)-methanone O-methyloxime]: 1.75; `CON=C1C(=NOCCSC(C)=O)Oc2ccccc21` (single isomer, unassigned) [VI-1 Isomer A, S-[2-(3-methoxyimino-3H-benzofuran-2-ylideneaminooxy)-ethyl]thioacetate]: 3.01.
Still for that read-out and setting: next, `CON=C(C1=NOCCS1)c1ccccc1Oc1ncnc(F)c1F` [IV-1, [2-(5,6-difluoro-pyrimidine-4-yloxy)-phenyl]-(5,6-dihydro-[1,4,2]oxathiazin-3-yl)-methanone O-methyloxime]: 2.8.
On the same count and under the same terms, with `CON=C1C(=NOCCBr)Oc2ccccc21` (single isomer, unassigned) [VII-1 Isomer A, benzofuran-2,3-dione 2-[O-(2-bromoethyl)-oxime] 3-(O-methyloxime)] the figure was 3.08.
Consider `CON=C1C(=NOCCBr)Oc2ccccc21` (single isomer, unassigned) [VII-1 Isomer B, benzofuran-2,3-dione 2-[O-(2-bromoethyl)-oxime] 3-(O-methyloxime)], for which the chromatographic logP was 3.23.

The next data set relates to Sphaerotheca fuliginea. Description: Sphaerotheca test (cucumber)/protective. The settings on record: protective, application rate 100 g/ha, evaluation 10 days after inoculation. The class given is in vivo. How it is done:
Sphaerotheca test (cucumber)/protective Solvent: 47 parts by weight of acetone Emulsifier: 3 parts by weight of alkylaryl polyglycol ether To produce a suitable preparation of active compound, 1 part by weight of active compound is mixed with the stated amounts of solvent and emulsifier, and the concentrate is diluted with water to the desired concentration. To test for protective activity, young plants are sprayed with the preparation of active compound at the stated application rate. After the spray coating has dried on, the plants are inoculated with an aqueous spore suspension of Sphaerotheca fuliginea. The plants are then placed in a greenhouse at approximately 23° C. and a relative atmospheric humidity of approximately 70%. Evaluation is carried out 10 days after the inoculation. 0% means an efficacy which corresponds to that of the control, whereas an efficacy of 100% means that no infection is observed.
The compound `CON=C(C1=NOCCS1)c1ccccc1Oc1ncnc(Oc2ccccc2)c1F` [Example 1, (5,6-dihydro-[1,4,2]-oxathiazin-3-yl)-2-[(5-fluoro-6-phenoxy-pyrimidine-4-yloxy)-phenyl]-methanone O-methyloxime] yielded an efficacy of no less than 90%.
